Measurements published in ChEMBL document CHEMBL1201862, “PubChem BioAssay data set” (2004).
Calls of active or inactive are those of the source.

Key:
HeLa = test: viability loss in HeLa cells – cell-based, 24 h, cherry-picked samples, cytotoxicity control, dose response (AID 504726); type: functional; conditions: Homo sapiens;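 also: potency for cytotoxicity as loss of luminescence signal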
Salmon testes DNA = test: acridine orange-DNA binding displacement – biochemical, fluorescence polarization, cherry-picked samples, set 2, artefact control for KSHV LANA DNA-binding inhibitor project, dose response (AID 504727); design: species or system Salmonidae
ORF 73 = molecular target: T1, ORF 73 (Human herpesvirus 8, UniProt O40947); test: KSHV LANA DNA-binding disruption – biochemical, fluorescence polarization, cherry-picked samples, dose response (AID 504725); design: species or system Human gammaherpesvirus 8;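 also: fluorescence polarization of a labeled DNA duplex reporting LANA DNA binding; potency is for inhibitors that block LANA binding to the DNA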
T1 sequence (O40947 whole entry): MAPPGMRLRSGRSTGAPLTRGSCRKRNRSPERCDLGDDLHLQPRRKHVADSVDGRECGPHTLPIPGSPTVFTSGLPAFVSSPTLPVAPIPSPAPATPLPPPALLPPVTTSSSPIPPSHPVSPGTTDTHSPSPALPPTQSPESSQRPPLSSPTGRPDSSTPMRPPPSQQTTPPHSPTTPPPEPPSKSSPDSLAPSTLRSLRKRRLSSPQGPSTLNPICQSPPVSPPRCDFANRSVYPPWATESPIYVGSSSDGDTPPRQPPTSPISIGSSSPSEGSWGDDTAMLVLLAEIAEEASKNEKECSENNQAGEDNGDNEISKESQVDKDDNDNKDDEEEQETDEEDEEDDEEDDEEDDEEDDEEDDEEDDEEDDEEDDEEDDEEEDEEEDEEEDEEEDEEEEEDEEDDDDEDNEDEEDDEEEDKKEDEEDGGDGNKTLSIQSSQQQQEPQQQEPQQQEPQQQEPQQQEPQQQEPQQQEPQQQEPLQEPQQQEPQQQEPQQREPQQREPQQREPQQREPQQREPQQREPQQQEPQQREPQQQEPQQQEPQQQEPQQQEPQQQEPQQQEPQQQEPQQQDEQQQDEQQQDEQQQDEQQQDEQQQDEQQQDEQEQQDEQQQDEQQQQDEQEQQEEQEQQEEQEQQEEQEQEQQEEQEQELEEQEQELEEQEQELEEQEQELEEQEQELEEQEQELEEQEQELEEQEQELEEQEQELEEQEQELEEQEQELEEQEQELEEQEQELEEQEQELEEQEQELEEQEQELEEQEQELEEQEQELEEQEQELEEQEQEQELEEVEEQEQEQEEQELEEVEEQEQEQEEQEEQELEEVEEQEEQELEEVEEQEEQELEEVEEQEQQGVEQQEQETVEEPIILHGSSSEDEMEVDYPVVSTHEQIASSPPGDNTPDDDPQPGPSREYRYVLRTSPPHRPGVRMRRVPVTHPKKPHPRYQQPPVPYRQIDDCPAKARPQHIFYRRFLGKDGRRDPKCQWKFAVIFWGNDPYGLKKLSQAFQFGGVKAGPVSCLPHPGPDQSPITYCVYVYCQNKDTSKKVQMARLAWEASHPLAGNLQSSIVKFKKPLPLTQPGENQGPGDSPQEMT

Troponin, cardiac muscle = Troponin, cardiac muscle (Homo sapiens, UniProt P19429+P45379+P63316); test: compounds desensitizing RTF to calcium – biochemical, fluorescence, cardiac regulated thin filaments, triplicate IC50, dose response (AID 504742); type: protein-complex assay
Hexokinase HKDC1 = molecular target: T2, Hexokinase HKDC1 (Homo sapiens, UniProt Q2TB90); test: inhibition of HKDC1 glucose phosphorylation – biochemical, W721R variant, dose response (AID 504729); type: functional
T2 sequence (Q2TB90 whole entry): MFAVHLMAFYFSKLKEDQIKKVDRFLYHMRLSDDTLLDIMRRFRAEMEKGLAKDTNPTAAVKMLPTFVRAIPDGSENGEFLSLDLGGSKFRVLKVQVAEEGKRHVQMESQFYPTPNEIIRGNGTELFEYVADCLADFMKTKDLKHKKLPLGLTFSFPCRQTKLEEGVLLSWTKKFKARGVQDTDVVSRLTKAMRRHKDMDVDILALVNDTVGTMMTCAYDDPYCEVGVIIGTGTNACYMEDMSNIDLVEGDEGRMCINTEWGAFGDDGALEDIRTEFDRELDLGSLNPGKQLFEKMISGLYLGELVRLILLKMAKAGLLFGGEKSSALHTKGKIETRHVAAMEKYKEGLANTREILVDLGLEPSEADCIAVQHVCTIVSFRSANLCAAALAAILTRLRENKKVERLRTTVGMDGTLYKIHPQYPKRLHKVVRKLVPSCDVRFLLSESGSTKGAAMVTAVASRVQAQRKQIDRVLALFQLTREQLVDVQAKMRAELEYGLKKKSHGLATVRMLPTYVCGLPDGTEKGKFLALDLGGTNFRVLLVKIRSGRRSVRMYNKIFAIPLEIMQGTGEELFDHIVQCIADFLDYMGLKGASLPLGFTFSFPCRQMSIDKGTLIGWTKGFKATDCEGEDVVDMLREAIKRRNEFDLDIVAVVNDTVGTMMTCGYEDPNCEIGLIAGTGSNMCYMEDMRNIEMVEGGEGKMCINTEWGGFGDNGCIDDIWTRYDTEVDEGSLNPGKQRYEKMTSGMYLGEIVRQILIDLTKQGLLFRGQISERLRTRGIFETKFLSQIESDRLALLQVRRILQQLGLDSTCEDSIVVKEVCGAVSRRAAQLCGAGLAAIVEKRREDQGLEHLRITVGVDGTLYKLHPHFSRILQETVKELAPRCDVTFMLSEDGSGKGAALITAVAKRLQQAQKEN

Genome polyprotein = Genome polyprotein (dengue virus type 2, UniProt P29990); test: flavivirus cap methylation enzyme inhibition – biochemical, confirmation dose response, primary screen (AID 588689); type: functional
[1] = molecular target: T3, Polyadenylate-binding protein 1 (Homo sapiens, UniProt P11940); test: MLLE binding blockers, Cy5 peptide tracer – biochemical, fluorescence polarization, Cy5-PAM2 peptide, secondary, miRNA deadenylation inhibitor project, dose response (AID 602260); type: functional; conditions: read-out: IC50_Mean
[2] = molecular target: T3, Polyadenylate-binding protein 1; test: MLLE domain peptide-binding blockers, IC50 – biochemical, fluorescence polarization, FITC-PAM2 peptide, dose response (AID 602259); type: functional; conditions: read-out: IC50_Mean
[3] = molecular target: T4, Small ubiquitin-related modifier 2 (Homo sapiens, UniProt P61956); test: disruption of SUMO2 interaction with SIM peptide – biochemical, fluorescence polarization, uHTS hits, selectivity assay for SUMO1 interaction inhibitor project, dose response (AID 624385); type: functional; conditions: read-out: IC50_Mean
[4] = molecular target: T5, Small ubiquitin-related modifier 1 (Homo sapiens, UniProt P63165); test: SUMO1 protein interaction blockers, potency – biochemical, fluorescence polarization, uHTS hits, dose response (AID 624382); type: functional; conditions: read-out: IC50_Mean
[5] = molecular target: T4, Small ubiquitin-related modifier 2; test: SUMO2 binding disruption by SUMO1 hits – biochemical, FRET, human SUMO2, uHTS hits, selectivity assay for SUMO1 interaction inhibitor project, dose response (AID 624384); type: functional; conditions: read-out: IC50_Mean
[6] = molecular target: T5, Small ubiquitin-related modifier 1; test: SUMO1 protein-protein binding blockers, potency – biochemical, FRET, dose response (AID 624383); type: functional; conditions: read-out: IC50_Mean
[7] = molecular target: T6, Rac GTPase-activating protein 1 (Homo sapiens, UniProt Q9H0H5); test: blockers of MgcRacGAP-driven Rac1 GTP hydrolysis – biochemical, ADP Hunter fluorescence, primary and confirmatory, confirmation (AID 624330); type: functional
T6 sequence (Q9H0H5 whole entry): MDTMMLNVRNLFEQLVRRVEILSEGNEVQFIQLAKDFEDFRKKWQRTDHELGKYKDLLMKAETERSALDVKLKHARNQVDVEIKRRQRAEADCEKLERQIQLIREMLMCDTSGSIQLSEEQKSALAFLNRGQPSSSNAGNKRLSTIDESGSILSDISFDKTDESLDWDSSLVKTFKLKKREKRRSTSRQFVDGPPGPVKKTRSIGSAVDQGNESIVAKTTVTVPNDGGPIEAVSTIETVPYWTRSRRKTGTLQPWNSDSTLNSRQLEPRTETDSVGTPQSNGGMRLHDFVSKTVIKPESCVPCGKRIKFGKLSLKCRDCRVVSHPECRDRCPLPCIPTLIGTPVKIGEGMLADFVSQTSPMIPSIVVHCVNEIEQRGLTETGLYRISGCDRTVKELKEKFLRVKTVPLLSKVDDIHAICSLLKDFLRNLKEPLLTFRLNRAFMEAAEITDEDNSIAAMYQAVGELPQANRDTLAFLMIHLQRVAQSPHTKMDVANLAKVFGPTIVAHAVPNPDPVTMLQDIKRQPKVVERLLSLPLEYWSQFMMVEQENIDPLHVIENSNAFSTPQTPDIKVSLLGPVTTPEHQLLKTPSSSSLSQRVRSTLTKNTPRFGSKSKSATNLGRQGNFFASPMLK

Estrogen receptor = molecular target: T7, Estrogen receptor (Homo sapiens, UniProt P03372); test: ERα coactivator recruitment enhancers – biochemical, TR-FRET, ERα LBD, dose response (AID 737)
T7 sequence (P03372 whole entry): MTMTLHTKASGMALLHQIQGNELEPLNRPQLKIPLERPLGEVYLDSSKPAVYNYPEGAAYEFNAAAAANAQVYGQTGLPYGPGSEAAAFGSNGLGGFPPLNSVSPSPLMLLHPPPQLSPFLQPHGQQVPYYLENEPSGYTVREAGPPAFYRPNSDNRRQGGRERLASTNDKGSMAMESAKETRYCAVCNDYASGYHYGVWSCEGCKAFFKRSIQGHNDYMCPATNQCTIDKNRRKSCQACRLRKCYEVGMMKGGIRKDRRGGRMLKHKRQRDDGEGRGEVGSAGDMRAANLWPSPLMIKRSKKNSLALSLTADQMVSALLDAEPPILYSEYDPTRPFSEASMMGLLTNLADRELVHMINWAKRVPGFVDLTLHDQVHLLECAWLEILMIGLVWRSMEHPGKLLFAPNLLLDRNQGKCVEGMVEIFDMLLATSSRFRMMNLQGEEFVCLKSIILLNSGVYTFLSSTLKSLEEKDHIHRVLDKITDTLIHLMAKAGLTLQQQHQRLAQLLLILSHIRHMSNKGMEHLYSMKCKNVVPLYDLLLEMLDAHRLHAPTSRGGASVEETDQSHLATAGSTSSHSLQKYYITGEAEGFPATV

[8] = molecular target: G-protein coupled receptor 55 (Homo sapiens, UniProt Q9Y2T6); test: selective activators of receptor GPR55 – imaging, U2OS cells, beta-arrestin-GFP redistribution, primary screen (AID 1961); type: functional
[9] = molecular target: T8, Short transient receptor potential channel 4 (Mus musculus, UniProt Q9QUQ5); test: potentiation of DAMGO-evoked TRPC4 calcium signal – cell-based, HEK293 TRPC4/mu-opioid, Fluo-4 calcium, EC20 DAMGO, dose response (AID 434941); type: functional
T8 sequence (Q9QUQ5 whole entry): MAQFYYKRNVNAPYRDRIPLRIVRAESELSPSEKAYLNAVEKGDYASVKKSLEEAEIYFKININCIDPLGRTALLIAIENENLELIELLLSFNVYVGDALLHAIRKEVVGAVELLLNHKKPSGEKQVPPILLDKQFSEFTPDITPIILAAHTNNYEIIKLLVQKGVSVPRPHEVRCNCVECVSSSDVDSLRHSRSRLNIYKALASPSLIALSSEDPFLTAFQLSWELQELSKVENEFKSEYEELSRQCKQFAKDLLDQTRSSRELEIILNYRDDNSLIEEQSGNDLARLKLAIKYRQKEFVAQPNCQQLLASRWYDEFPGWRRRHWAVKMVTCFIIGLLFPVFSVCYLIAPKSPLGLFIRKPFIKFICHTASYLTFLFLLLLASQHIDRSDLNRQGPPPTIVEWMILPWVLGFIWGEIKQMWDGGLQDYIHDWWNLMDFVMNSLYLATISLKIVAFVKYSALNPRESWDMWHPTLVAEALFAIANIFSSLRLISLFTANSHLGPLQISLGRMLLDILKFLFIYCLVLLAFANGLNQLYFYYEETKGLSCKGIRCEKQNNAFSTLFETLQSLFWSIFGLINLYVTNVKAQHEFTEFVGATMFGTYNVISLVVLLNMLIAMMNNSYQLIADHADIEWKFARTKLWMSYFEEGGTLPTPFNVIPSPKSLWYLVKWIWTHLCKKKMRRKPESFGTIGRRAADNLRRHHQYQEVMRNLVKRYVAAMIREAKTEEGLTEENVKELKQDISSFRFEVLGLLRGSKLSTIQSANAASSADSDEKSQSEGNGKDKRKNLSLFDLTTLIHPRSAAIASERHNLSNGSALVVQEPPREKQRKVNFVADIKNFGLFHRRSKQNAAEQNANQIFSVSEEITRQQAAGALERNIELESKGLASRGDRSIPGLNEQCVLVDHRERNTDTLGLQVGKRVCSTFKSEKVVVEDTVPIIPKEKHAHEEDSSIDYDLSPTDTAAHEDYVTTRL

[10] = potency of ADAM10 substrate cleavage blockers – biochemical, QFRET, dose response (AID 743254);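 also: ADAM10 enzyme with the DM2 quenched FRET peptide as substrate; EDANS fluorescence gain as the protease cuts the substrate; inhibitor potency against ADAM10 proteolytic activity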
[11] = molecular target: Disintegrin and metalloproteinase domain-containing protein 17 (Homo sapiens, UniProt P78536); test: inhibition of ADAM17 substrate cleavage – biochemical, quenched FRET substrate, counter-screen for ADAM10 exosite inhibitor project, dose response (AID 743253)

In the case of O=S(=O)(O)c1ccc(O)c2cc(Nc3ccccc3)ccc12, the AC50 (HeLa) is reported as 233 µM (active), the AC50 (Salmon testes DNA) is reported as 98.3 µM (active) and the AC50 (ORF 73) is reported as 6.72 µM (active). The IC50 (Troponin, cardiac muscle) was 3.89 µM (active), the IC50 (Hexokinase HKDC1) was 9.14 µM (active) and the IC50 (Genome polyprotein) was 20 µM (active). The IC50 [1] was > 66 µM (inactive), the IC50 [2] was > 66 µM (inactive) and the IC50 [3] was 7.83 µM (active). The IC50 [4] was 11.6 µM (active), the IC50 [5] was 0.58 µM (active) and the IC50 [6] was 0.88 µM (active). For the same compound, the IC50 [7] was 19.6 µM (active).
With Cc1noc(C)c1COC(=O)c1cc2c3ccccc3n(C)c2s1 the EC50 (Estrogen receptor) was 23.1 µM (active) and the EC50 [8] was 20.4 µM (inactive).
In the case of O=C(NCc1ccccc1)C1=C[C@H](c2ccc(Br)cc2)C[C@H](OCc2ccc(CO)cc2)O1, the EC50 [9] is reported as 10.6 µM (active), the IC50 [10] is reported as > 69.5 µM (inactive) and the IC50 [11] is reported as > 69.5 µM (inactive).
